Source: ChEMBL document CHEMBL2073996, “Increased bioavailability of the food-derived carcinogen 2-amino-1-methyl-6-phenylimidazo[4,5-b]pyridine in MRP2-deficient rats” (Mol Pharmacol, 2001)

Target: ATP-binding cassette sub-family C member 2 (Homo sapiens, UniProt Q92887)
Assay: TP_TRANSPORTER: transepithelial transport (basal to apical) in MRP2-expressing MDCKII cells
Type: functional, cell-based
Conditions: dog, mdck-ii

Chain of ATP-binding cassette sub-family C member 2 (Q92887 whole entry): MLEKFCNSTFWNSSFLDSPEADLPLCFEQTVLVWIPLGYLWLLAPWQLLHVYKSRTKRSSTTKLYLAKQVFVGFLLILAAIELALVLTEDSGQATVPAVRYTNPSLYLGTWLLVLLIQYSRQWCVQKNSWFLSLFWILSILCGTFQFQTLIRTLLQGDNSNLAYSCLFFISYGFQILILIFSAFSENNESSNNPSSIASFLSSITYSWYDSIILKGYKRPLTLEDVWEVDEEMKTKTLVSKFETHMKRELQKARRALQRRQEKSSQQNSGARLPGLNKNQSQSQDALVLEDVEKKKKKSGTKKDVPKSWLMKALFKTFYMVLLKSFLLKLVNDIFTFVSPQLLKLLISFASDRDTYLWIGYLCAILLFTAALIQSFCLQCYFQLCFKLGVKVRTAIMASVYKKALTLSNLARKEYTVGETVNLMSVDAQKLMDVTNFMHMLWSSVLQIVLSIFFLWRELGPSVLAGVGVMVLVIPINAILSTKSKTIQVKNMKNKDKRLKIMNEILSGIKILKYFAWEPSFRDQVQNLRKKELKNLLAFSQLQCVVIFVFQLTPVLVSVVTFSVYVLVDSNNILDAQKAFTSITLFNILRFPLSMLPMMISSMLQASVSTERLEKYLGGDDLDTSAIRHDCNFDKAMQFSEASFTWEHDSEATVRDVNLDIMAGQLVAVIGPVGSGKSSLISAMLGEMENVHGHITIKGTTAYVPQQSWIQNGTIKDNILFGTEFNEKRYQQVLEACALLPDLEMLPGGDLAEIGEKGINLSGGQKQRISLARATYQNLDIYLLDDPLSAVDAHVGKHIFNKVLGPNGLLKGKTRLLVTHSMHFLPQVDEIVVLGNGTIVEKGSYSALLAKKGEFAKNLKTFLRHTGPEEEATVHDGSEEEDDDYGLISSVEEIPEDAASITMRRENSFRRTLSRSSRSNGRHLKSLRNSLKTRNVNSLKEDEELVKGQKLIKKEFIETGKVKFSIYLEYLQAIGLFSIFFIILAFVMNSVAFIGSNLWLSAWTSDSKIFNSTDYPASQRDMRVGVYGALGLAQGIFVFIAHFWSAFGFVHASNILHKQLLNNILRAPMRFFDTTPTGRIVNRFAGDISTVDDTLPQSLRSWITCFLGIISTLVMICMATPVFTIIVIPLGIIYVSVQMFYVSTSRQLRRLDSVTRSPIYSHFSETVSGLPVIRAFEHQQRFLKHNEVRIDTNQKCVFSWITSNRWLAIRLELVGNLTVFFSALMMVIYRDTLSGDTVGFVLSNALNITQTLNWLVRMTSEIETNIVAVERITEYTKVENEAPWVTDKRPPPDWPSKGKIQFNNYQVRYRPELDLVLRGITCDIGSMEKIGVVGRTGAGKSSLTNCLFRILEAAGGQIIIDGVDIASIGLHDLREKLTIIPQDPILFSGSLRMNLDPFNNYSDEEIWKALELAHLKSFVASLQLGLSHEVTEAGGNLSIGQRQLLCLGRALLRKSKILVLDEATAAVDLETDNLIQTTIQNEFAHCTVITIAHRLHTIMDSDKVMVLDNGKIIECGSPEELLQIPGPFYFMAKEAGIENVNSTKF

SMILES: Cn1c(N)nc2ncc(-c3ccccc3)cc21 [2-AMINO-1-METHYL-6- PHENYLIMIDAZO[4,5- B]PYRIDINE]
- Activity: substrate [+]
